Measured values as given in patent US20140303164A1, “THERAPEUTIC COMPOUNDS” (Gilead Sciences, Inc., priority 2013, published 2014).

Columns and labels:
HIV-IIIb = assay: Test A: Antiviral Assay in MT4 Cells; type: cell-based, HIV-1; details: Human immunodeficiency virus 1, IIIB, MT4, 120 h; for inhibition at 0.2 µM: read-out: % inhibition at 0.2 μM; for inhibition at 2 µM: read-out: % inhibition at 2 μM
Experimental: Test A: Antiviral Assay in MT4 Cells
MT-4 cells were next mixed with HIV-IIIb at an m.o.i of 0.003 for 1 hour, after which time 35 μL of virus/cell mixture (2000 cells) was immediately added to each well containing 40 μL of diluted compound. The plates were then incubated at 37° C. for 5 days. […] Cell lysis was carried out by incubating at room temperature for 10 min and then chemiluminescence was read.

[1] = Test B: Cytotoxicity Assay; type: cell-based; details: human, uninfected MT-4 cells, same protocol as Test A
How it was run: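 Uninfected MT-4 cells (2000 per well) incubated with diluted compound at 37° C. for 5 days, following the antiviral protocol without HIV-IIIb.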

SMILES	inhibition at 0.2 µM (HIV-IIIb)	inhibition at 2 µM (HIV-IIIb)	CC50 at 5 days [1]
CC(C)(O)C#Cc1ccc(-c2ccc(Cl)c(C(N)=O)c2)c([C@H](Cc2cc(F)cc(F)c2)NC(=O)Cn2nc(C(F)(F)F)c3c2C(F)(F)[C@@H]2C[C@H]32)n1 [Compound 80, 2-chloro-5-(2-((S)-1-(2-((3bS,4aR)-5,5-difluoro-3-(trifluoromethyl)-3b,4,4a,5-tetrahydro-1H-cyclopropa[3,4]cyclopenta[1,2-c]pyrazol-1-yl)acetamido)-2-(3,5-difluorophenyl)ethyl)-6-(3-hydroxy-3-methylbut-1-yn-1-yl)pyridin-3-yl)benzamide]	96%	100%	8.58 µM
CC(C)(O)C#Cc1ccc(-c2cc(F)c(F)c(C(N)=O)c2)c([C@H](Cc2cc(F)cc(F)c2)NC(=O)Cn2nc(C(F)(F)F)c3c2C(F)(F)[C@@H]2C[C@H]32)n1 [Compound 30, 5-(2-((S)-1-(2-((3bS,4aR)-5,5-difluoro-3-(trifluoromethyl)-3b,4,4a,5-tetrahydro-1H-cyclopropa[3,4]cyclopenta[1,2-c]pyrazol-1-yl)acetamido)-2-(3,5-difluorophenyl)ethyl)-6-(3-hydroxy-3-methylbut-1-yn-1-yl)pyridin-3-yl)-2,3-difluorobenzamide]	1%	91%	8.58 µM
Cn1nc(NC(=O)NC2CC2)c2cccc(-c3ccc(C#CC(C)(C)O)nc3[C@H](Cc3cc(F)cc(F)c3)NC(=O)Cn3nc(C(F)(F)F)c4c3C(F)(F)[C@@H]3C[C@H]43)c21 [Compound 50, N—((S)-1-(3-(3-(3-cyclopropylureido)-1-methyl-1H-indazol-7-yl)-6-(3-hydroxy-3-methylbut-1-yn-1-yl)pyridin-2-yl)-2-(3,5-difluorophenyl)ethyl)-2-((3b-S,4aR)-5,5-difluoro-3-(trifluoromethyl)-3b,4,4a,5-tetrahydro-1H-cyclopropa[3,4]cyclopenta[1,2-c]pyrazol-1-yl)acetamide]	95%	96%	11.7 µM
Cc1cc2ncn(CC(=O)N[C@@H](Cc3cc(F)cc(F)c3)c3nc(C#CC(C)(C)O)ccc3-c3ccc(Cl)c4c(NS(C)(=O)=O)nn(C)c34)c2cc1C [Compound 199, (S)—N-(1-(3-(4 chloro-1-methyl-3-(methylsulfonamido)-1H-indazol-7-yl)-6-(3-hydroxy-3-methylbut-1-yn-1-yl)pyridin-2-yl)-2-(3,5-difluorophenyl)ethyl)-2-(5,6-dimethyl-1H-benzo[d]imidazol-1-yl)acetamide]	95%	95%	22.5 µM
Cn1nc(NS(N)(=O)=O)c2c(Cl)ccc(-c3ccc(C#CC(C)(C)O)nc3[C@H](Cc3cc(F)cc(F)c3)NC(=O)Cn3nc(C(F)F)c4c3C(F)(F)CCC4(F)F)c21 [Compound 122, (S)—N-(1-(3-(4 chloro-1-methyl-3-(sulfamoylamino)-1H-indazol-7-yl)-6-(3-hydroxy-3-methylbut-1-yn-1-yl)pyridin-2-yl)-2-(3,5-difluorophenyl)ethyl)-2-(3-(difluoromethyl)-4,4,7,7-tetrafluoro-4,5,6,7-tetrahydro-1H-indazol-1-yl)acetamide]	88%	88%	9.07 µM
Cn1nc(NS(C)(=O)=O)c2c(Cl)ccc(-c3ccc(C#CC(C)(C)O)nc3[C@H](Cc3cc(F)cc(F)c3)NC(=O)Cn3nc(Cl)c4c3C(F)(F)[C@@H]3C[C@H]43)c21 [Compound 149, N—((S)-1-(3-(4-chloro-1-methyl-3-(methylsulfonamido)-1H-indazol-7-yl)-6-(3-hydroxy-3-methylbut-1-yn-1-yl)pyridin-2-yl)-2-(3,5-difluorophenyl)ethyl)-2-((3bS,4aR)-3-chloro-5,5-difluoro-3b,4,4a,5-tetrahydro-1H-cyclopropa[3,4]cyclopenta[1,2-c]pyrazol-1-yl)acetamide]	86%	86%	26.7 µM
Cn1nc(NS(C)(=O)=O)c2c(Cl)ccc(-c3ccc(C#CC(C)(O)CF)nc3[C@H](Cc3cc(F)cc(F)c3)NC(=O)Cn3nc(C(F)(F)F)c4c3C(F)(F)[C@@H]3C[C@H]43)c21 (stereo partly drawn) [Compound 152, N-((1S)-1-(3-(4-chloro-1-methyl-3-(methylsulfonamido)-1H-indazol-7-yl)-6-(4-fluoro-3-hydroxy-3-methylbut-1-yn-1-yl)pyridin-2-yl)-2-(3,5-difluorophenyl)ethyl)-2-((3b-S,4aR)-5,5-difluoro-3-(trifluoromethyl)-3b,4,4a,5-tetrahydro-1H-cyclopropa[3,4]cyclopenta[1,2-c]pyrazol-1-yl)acetamide]	89%	89%	11.9 µM
CC(C)C(=O)Nc1nn(C)c2c(-c3ccc(C#CC(C)(C)O)nc3[C@H](Cc3cc(F)cc(F)c3)NC(=O)Cn3nc(C(F)F)c4c3C(F)(F)[C@@H]3C[C@H]43)ccc(Cl)c12 [Compound 96, N-(4-chloro-7-(2-((S)-1-(2-((3b-S,4aR)-3-(difluoromethyl)-5,5-difluoro-3b,4,4a,5-tetrahydro-1H-cyclopropa[3,4]cyclopenta[1,2-c]pyrazol-1-yl)acetamido)-2-(3,5-difluorophenyl)ethyl)-6-(3-hydroxy-3-methylbut-1-yn-1-yl)pyridin-3-yl)-1-methyl-1H-indazol-3-yl)isobutyramide]	100%	100%	7 µM
CN1CCN(C(=O)Nc2nn(C)c3c(-c4ccc(C#CC(C)(C)O)nc4[C@H](Cc4cc(F)cc(F)c4)NC(=O)Cn4nc(C(F)(F)F)c5c4C(F)(F)[C@@H]4C[C@H]54)cccc23)CC1 [Compound 51, N-(7-(2-((S)-1-(2-((3bS,4aR)-5,5-difluoro-3-(trifluoromethyl)-3b,4,4a,5-tetrahydro-1H-cyclopropa[3,4]cyclopenta[1,2-c]pyrazol-1-yl)acetamido)-2-(3,5-difluorophenyl)ethyl)-6-(3-hydroxy-3-methylbut-1-yn-1-yl)pyridin-3-yl)-1-methyl-1H-indazol-3-yl)-4-methylpiperazine-1-carboxamide]	95%	95%	11.1 µM
Cc1c(CCO)c(C2CC2)nn1CC(=O)N[C@@H](Cc1cc(F)cc(F)c1)c1nc(C#CC(C)(C)O)ccc1-c1ccc(Cl)c2c(NS(C)(=O)=O)nn(C)c12 [Compound 167, (S)—N-(1-(3-(4 chloro-1-methyl-3-(methylsulfonamido)-1H-indazol-7-yl)-6-(3-hydroxy-3-methylbut-1-yn-1-yl)pyridin-2-yl)-2-(3,5-difluorophenyl)ethyl)-2-(3-cyclopropyl-4-(2-hydroxyethyl)-5-methyl-1H-pyrazol-1-yl)acetamide]	93%	93%	34.1 µM
CC(C)(O)C#Cc1ccc(-c2ccc3n[nH]c(=O)n3c2)c([C@H](Cc2cc(F)cc(F)c2)NC(=O)Cn2nc(C(F)(F)F)c3c2C(F)(F)[C@@H]2C[C@H]32)n1 [Compound 26, 2-((3bS,4aR)-5,5-difluoro-3-(trifluoromethyl)-3b,4,4a,5-tetrahydro-1H-cyclopropa[3,4]cyclopenta[1,2-c]pyrazol-1-yl)-N—((S)-2-(3,5-difluorophenyl)-1-(6-(3-hydroxy-3-methylbut-1-yn-1-yl)-3-(3-oxo-2,3-dihydro-[1,2,4]triazolo[4,3-a]pyridin-6-yl)pyridin-2-yl)ethyl)acetamide]	84%	100%	10 µM
